Experimental findings from US9718790B2, “Triazine derivative and pharmaceutical composition having an analgesic activity comprising the same” (SHIONOGI & CO., LTD., priority 2010, dated 2017) are described below.

One assay deals with human P2X3 receptor (Homo sapiens (Human), UniProt P56373). The assay can be described thus: Evaluation of human P2X3 receptor inhibitory activity (Fluo-3 calcium fluorescence, FDSS 3000, ATP stimulation).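 Note: stimulus was 50 nM ATP with fluorescence followed for 3 min, and the response per well was peak post-ATP fluorescence divided by the reading at measurement start.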 It counts as cell-based. As to conditions: C6BU-1 cells stably expressing human P2X3 receptor.
human P2X3 receptor, sequence (P56373 whole entry): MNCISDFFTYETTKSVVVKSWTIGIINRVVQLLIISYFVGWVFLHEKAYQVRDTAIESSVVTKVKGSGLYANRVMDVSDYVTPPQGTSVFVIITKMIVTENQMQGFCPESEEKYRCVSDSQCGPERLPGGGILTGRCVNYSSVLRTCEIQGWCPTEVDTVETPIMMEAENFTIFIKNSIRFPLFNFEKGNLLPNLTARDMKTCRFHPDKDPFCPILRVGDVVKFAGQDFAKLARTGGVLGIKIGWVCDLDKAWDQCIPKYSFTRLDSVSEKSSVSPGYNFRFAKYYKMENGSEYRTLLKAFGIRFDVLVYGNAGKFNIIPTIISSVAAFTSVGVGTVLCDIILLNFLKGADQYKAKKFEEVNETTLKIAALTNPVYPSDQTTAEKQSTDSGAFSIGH
The IC50 is the concentration that inhibits the measured activity by half. For `CCCCOc1ccc(/N=c2\[nH]c(=O)n(C[C@H](C)C(=O)OC)c(=O)n2Cc2ccc(C)cc2)cc1` [Compound I-0816], the IC50 was 37 nM.
For `COc1cc(/N=c2\[nH]c(=O)n([C@@H](C)[C@@H](C)C(=O)O)c(=O)n2Cc2ccc(C)cc2)ccc1CC(C)C` [Compound I-1367], the IC50 came to 14 nM.
Still for that read-out and setting: the result for `O=c1[nH]c(=O)n(Cc2ccc(Cl)cc2)/c(=N/c2ccc(Oc3ccnc(CO)c3)cc2)[nH]1` [Compound I-1962] reads 65 nM; that for `C=C(Cn1c(=O)[nH]/c(=N\c2ccc(OC(C)C)c(C)c2)n(Cc2ccc(Cl)cc2)c1=O)C(=O)OCC` [Compound I-0779], 16 nM.
Still for that read-out and setting: the result for `CCCc1ccc(/N=c2\[nH]c(=O)n(C[C@H](C)C(=O)OC)c(=O)n2Cc2ccc(C)cc2)cc1Cl` [Compound I-1277] reads 15 nM.
As for `COC(=O)[C@@H](C)Cn1c(=O)[nH]/c(=N\c2ccc(CC(C)C)c(F)c2)n(Cc2ccc(Cl)cc2)c1=O` [Compound I-1254], the IC50 came out at 45 nM.
Take `CCn1c(=O)[nH]/c(=N\c2ccc(Oc3cccc(C(=O)O)c3)cc2)n(Cc2ccc(C)cc2)c1=O` [Compound I-2034]: the IC50 stood at 9 nM.
Take `COC(=O)[C@@H](C)[C@@H](C)n1c(=O)[nH]/c(=N\c2ccc(Oc3ccc(C)nc3)cc2)n(Cc2ccc(Cl)cc2)c1=O` [Compound I-1376]: the IC50 is 15 nM.
As to `CCOC(=O)c1sc(Oc2ccc(/N=c3\[nH]c(=O)n(CC)c(=O)n3Cc3ccc(Cl)cc3)cc2)nc1C` [Compound I-2147], the IC50 came out at 14 nM.
As to `COC(=O)[C@@H](C)Cn1c(=O)[nH]/c(=N\c2ccc(CC(C)C)c(F)c2)n(Cc2ccc(C)cc2)c1=O` [Compound I-1252], the IC50 was 23 nM.
Still for that read-out and setting: to `Cc1cc(/N=c2\[nH]c(=O)n(CC3(C(=O)O)CC3)c(=O)n2Cc2ccc(Cl)cc2)ccc1OC(C)C` [Compound I-0698] belongs 26 nM; to `CC(C)Oc1ccc(/N=c2\[nH]c(=O)n(CC(=O)N3CCN(C(=O)OC(C)(C)C)CC3)c(=O)n2Cc2ccc(Cl)cc2)cc1Cl` [Compound I-0740], 221 nM.
Consider `Cc1cc(/N=c2\[nH]c(=O)n(Cc3cccn(CCOC4CCCCO4)c3=O)c(=O)n2Cc2ccc(Cl)cc2)ccc1OC(C)C` (stereo not shown) [Compound I-0712], for which the IC50 was found to be 25 nM.
On the same count and under the same terms, to `COc1ccc(CN2C(=O)CC[C@@H]2Cn2c(=O)[nH]/c(=N\c3ccc(OC(C)C)c(F)c3)n(Cc3ccc(Cl)cc3)c2=O)cc1` [Compound I-0688] belongs 5 nM.

Still in this assay, the particulars now being: C6BU-1 cells stably expressing human P2X3 receptor, Fluo-3 fluorescence, FDSS 3000.
As to `Cc1nc2ccc(/N=c3\[nH]c(=O)n(C[C@H](O)CO)c(=O)n3Cc3ccc(Cl)cc3)cc2s1` [Compound I-1618], the IC50 was determined as 8 nM.
Still for that read-out and setting: to `C[C@@H](C(=O)O)[C@H](C)n1c(=O)[nH]/c(=N\c2ccc3c(c2)OC(F)(F)O3)n(Cc2ccc(Cl)cc2)c1=O` [Compound I-1821] belongs 429 nM; to `CCc1nc2ccc(/N=c3\[nH]c(=O)n(CCO)c(=O)n3Cc3ccc(Cl)cc3)cc2s1` [Compound I-1663], 8 nM; to `Cc1ccc(Cn2c(=O)n(C[C@@H](C)C(=O)O)c(=O)[nH]/c2=N\c2ccc(OC(C)C)cc2)cc1` [Compound I-1105], 152 nM.
For the molecule `CCCOc1ccc(/N=c2\[nH]c(=O)n(CC3(C(=O)O)CC3)c(=O)n2Cc2ccc(Cl)cc2)cc1Cl` [Compound I-0986], the IC50 is 31 nM.
Still for that read-out and setting: to `COC(=O)Cn1c(=O)[nH]/c(=N\c2ccc3nc(C)sc3c2)n(Cc2ccc(Cl)cc2)c1=O` [Compound I-1602] belongs 5 nM; to `CC1(C)OCC(Cn2c(=O)nc(Cc3cccc(C(F)(F)F)c3)n(Cc3ccc(Cl)cc3)c2=O)CO1` [Compound I-1642], 551 nM; to `Cc1ccc(Cn2c(=O)n(C[C@H](C)C(=O)O)c(=O)[nH]/c2=N\c2ccc(Cl)c(C(F)(F)F)c2)cc1` [Compound I-1003], 229 nM.
On to `CCCOc1ccc(/N=c2\[nH]c(=O)n([C@@H](C)[C@@H](C)C(=O)OC)c(=O)n2Cc2ccc(C)cc2)cc1` [Compound I-0926], for which the IC50 is 31 nM.
Same read-out and setting: the result for `Cc1ccc(Cn2c(=O)n(CCC(=O)O)c(=O)[nH]/c2=N\c2ccc(OCC3CC3)cc2)cc1` [Compound I-1148] reads 86 nM; that for `COc1ccc2cc(/N=c3\[nH]c(=O)n([C@@H](C)[C@@H](C)C(=O)O)c(=O)n3Cc3ccc(Cl)cc3)ccc2c1` [Compound I-1773], 29 nM; that for `Cc1ccc(Cn2c(=O)n(CCC(=O)O)c(=O)[nH]/c2=N\c2ccc3nc(C4CC4)sc3c2)cc1` [Compound I-1561], 32 nM.
The same measure, in the same setting: the result for `CCn1c(=O)[nH]/c(=N\c2ccc(Oc3cccc(CC(=O)O)c3)cc2)n(Cc2ccc(Cl)cc2)c1=O` [Compound I-1894] reads 23 nM; that for `Cc1nc2ccc(/N=c3\[nH]c(=O)n(CC4(C)COC(C)(C)OC4)c(=O)n3Cc3ccc(Cl)cc3)cc2s1` [Compound I-1635], 5 nM; that for `CCOC(=O)CCn1c(=O)[nH]/c(=N\c2ccc(OCC(C)(C)C)cc2)n(Cc2ccc(C)cc2)c1=O` [Compound I-1056], 177 nM.

The assay is the same for the next values; noted with them: human P2X3 receptor, Test Example 1.
Regarding `CCn1c(=O)[nH]/c(=N\c2ccc(Oc3cccc(C(=O)O)n3)c(OC)c2)n(Cc2ccc(Cl)cc2)c1=O` [Compound I-2423], the IC50 stood at 7 nM.
As for `CCn1c(=O)[nH]/c(=N\c2ccc(Oc3ncccc3C(=O)O)cc2)n(Cc2ccc(Cl)cc2)c1=O` [Compound I-2366], the IC50 was 90 nM.
On the same count and under the same terms, the result for `CCOc1ccc(/N=c2\[nH]c(=O)n([C@H](C)CC(=O)O)c(=O)n2Cc2ccc(C)cc2)cc1Cl` [Compound I-0879] reads 58 nM.
Still for that read-out and setting: the result for `CCn1c(=O)[nH]/c(=N\c2ccc(O[C@@H]3C[C@@H](C(=O)OC)N(C(=O)OC(C)(C)C)C3)cc2)n(Cc2ccc(Cl)cc2)c1=O` [Compound I-2265] reads 299 nM; that for `C=COc1ccc(/N=c2\[nH]c(=O)n(C[C@H](C)C(=O)O)c(=O)n2Cc2ccc(C)cc2)cc1Cl` [Compound I-1549], 8 nM; that for `CC(CO)(CO)Cn1c(=O)[nH]/c(=N\c2ccc(OCC3CC3)cc2)n(Cc2ccc(Cl)cc2)c1=O` [Compound I-2616], 12 nM.
Take `O=c1[nH]/c(=N\c2ccc(Oc3nccs3)cc2)n(Cc2ccc(Cl)cc2)c(=O)n1CCO` [Compound I-2505]: the IC50 amounted to 17 nM.
On the same count and under the same terms, the result for `CC1(Cn2c(=O)[nH]/c(=N\c3ccc(OCC4CC4)cc3)n(Cc3ccc(Cl)cc3)c2=O)COC(C)(C)OC1` [Compound I-2615] reads 7 nM; that for `O=c1[nH]/c(=N\c2ccc(Oc3nccs3)cc2)n(Cc2ccc(Cl)cc2)c(=O)n1CC(O)CO` (stereo not shown) [Compound I-2448], 11 nM; that for `CCn1c(=O)[nH]/c(=N\c2ccc(Oc3ncc(C(=O)O)cn3)cc2)n(Cc2ccc(Cl)cc2)c1=O` [Compound I-2323], 16 nM.
The same measure, in the same setting: the result for `CCn1c(=O)[nH]/c(=N\[C@H]2CC[C@H](Oc3ccnc(C(=O)NC)c3)CC2)n(Cc2ccc(Cl)cc2)c1=O` [Compound I-2246] reads 790 nM; that for `Cc1ccc(Cn2c(=O)n(C)c(=O)[nH]/c2=N\c2ccc(Oc3ccc(C(N)=O)cn3)cc2)cc1` [Compound I-2464], 10 nM.
On the same count and under the same terms, to `CCn1c(=O)[nH]/c(=N\c2ccc(Oc3cccc(/C=C/C(=O)O)c3)cc2)n(Cc2ccc(Cl)cc2)c1=O` [Compound I-2231] belongs 3 nM; to `COC(=O)[C@@H](C)Cn1c(=O)[nH]/c(=N\c2ccc(OC(C)C)c(C)c2)n(Cc2ccc(Br)cc2)c1=O` [Compound I-0865], 17 nM.
